Source: US20130065964A1, “PERITONEAL DIALYSIS SOLUTION” (UNIVERSIDAD DE CASTILLA LA MANCHA, priority 2010, published 2013)

Tested on: peritoneum
Assay: Chronic peritoneal dialysis in rats, peritoneal equilibrium test (PET)
Assay type: in vivo, rat
Conditions: rats dialysed daily for four weeks with PDF, aliskiren 0.1 or 1 mg/Kg, FIGS. 12 and 13
Procedure: The rats were exposed daily for four weeks to carrier (saline serum), 1.5% PDF, 2.3% PDF or 4.5% PDF supplemented by carrier, 0.1 mg/Kg aliskiren or 1 mg/Kg aliskiren. The data are expressed as mean±SEM, n=6 rats per group. * p<0.05, compared to the group treated with carrier in the absence of aliskiren (carrier). # p<0.05, compared to their respective groups treated with PDFs in the absence of aliskiren. […] The rats were exposed daily for four weeks to carrier (saline serum), 1.5% PDF, 2.3% PDF or 4.5% PDF supplemented by carrier, 0.1 mg/Kg aliskiren or 1 mg/Kg aliskiren. The data is expressed as mean media±SEM, n=6 rats per group. * p<0.05, compared to the group treated with carrier in the absence of aliskiren (carrier). # p<0.05, compared to their respective groups treated with PDFs in the absence of aliskiren. […] Their body weight was measured at the start and end of the experimental period. […] The concentrations of creatinine and glucose in the serum and dialysate were measured using enzymatic methods. The peritoneal transport of solutes was calculated, on one hand, as the glucose concentration in the dialysate 2 hours after the PET relative to the initial glucose concentration in the PDF (D2/D0 glucose) and, on the other, as the dialysate/plasma creatinine concentration ratio (D2/P2 creatinine) 2 h after the PET. […]

For `COCCCOc1cc(C[C@@H](C[C@H](N)[C@@H](O)C[C@H](C(=O)NCC(C)(C)C(N)=O)C(C)C)C(C)C)ccc1OC` [aliskiren], the “peritoneal damage in vivo (D2/D0 glucose, D2/P2 creatinine)” value was “reduced peritoneal damage”.
